The source of these data is patent US12590091B2, “1H-pyrrolo[3,2-C]pyridine and 1H-pyrrolo[2,3-C]pyridine derivatives as TLR9 inhibitors for the treatment of fibrosis” (BRISTOL-MYERS SQUIBB COMPANY, priority 2020, dated 2026).

Some results are limits rather than exact numbers.

The experiment deals with T1, human TLR8 (Homo sapiens, UniProt Q9NR97).
T1 construct: host or cells: HEK-Blue cells
T1 sequence (Q9NR97 27-1041): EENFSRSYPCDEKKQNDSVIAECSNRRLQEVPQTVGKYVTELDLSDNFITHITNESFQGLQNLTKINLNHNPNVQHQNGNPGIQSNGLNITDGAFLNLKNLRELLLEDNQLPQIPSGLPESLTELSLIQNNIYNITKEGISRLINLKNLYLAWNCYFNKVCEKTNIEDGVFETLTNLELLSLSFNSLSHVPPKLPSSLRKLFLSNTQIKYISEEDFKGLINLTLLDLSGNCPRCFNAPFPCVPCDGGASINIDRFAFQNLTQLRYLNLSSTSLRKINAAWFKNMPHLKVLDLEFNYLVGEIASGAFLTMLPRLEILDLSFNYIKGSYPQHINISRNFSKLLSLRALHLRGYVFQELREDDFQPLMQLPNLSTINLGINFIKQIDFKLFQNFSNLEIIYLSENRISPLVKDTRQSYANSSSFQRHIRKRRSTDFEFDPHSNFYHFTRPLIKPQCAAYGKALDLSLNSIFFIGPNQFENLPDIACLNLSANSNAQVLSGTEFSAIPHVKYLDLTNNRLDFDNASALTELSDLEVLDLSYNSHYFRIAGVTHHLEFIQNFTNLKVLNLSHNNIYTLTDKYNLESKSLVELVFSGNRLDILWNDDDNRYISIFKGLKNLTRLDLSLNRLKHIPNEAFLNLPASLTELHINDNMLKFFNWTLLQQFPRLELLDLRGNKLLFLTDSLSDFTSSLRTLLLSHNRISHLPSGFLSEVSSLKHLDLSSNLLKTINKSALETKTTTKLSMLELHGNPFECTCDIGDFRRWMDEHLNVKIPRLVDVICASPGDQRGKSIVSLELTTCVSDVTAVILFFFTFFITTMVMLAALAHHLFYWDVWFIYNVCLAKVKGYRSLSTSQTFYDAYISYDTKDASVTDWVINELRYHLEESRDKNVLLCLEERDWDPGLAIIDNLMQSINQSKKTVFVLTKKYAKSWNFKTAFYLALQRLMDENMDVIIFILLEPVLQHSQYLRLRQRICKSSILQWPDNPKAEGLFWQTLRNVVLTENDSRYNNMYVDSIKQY
Description: TLR8 inhibition reporter assay (HEK-Blue cells, SEAP reporter). It is filed as cell-based. The following applies: HEK-Blue cells overexpressing human TLR8, stimulated with R848 15.9 μM, 22 hour incubation. The essentials: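 Compound treatment: 30 min, RT, 0.05 nM–50 μM final. Agonist: TLR7 gardiquimod 7.5 μM; TLR8 R848 15.9 μM; TLR9 ODN2006 5 nM. Incubation 22 h, 37 °C, 5% CO2. Readout SEAP, HEK-Blue Detection.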
In turn, `CCOC(=O)N1CCC(N2CCC(c3cc4c(cn3)cc(-c3ccc(OC)c(OC)c3)n4C)CC2)CC1` [Example 7, Ethyl 4-(2-(3,4-dimethoxyphenyl)-1-methyl-1H-pyrrolo[3,2-c]pyridin-6-yl)-[1,4′-bipiperidine]-1′-carboxylate] had an IC50 of 5.2 µM.
`COc1ccc(-c2cc3cnc(C4CCN(Cc5ccc(C)nc5)CC4)cc3n2C)cc1OC` [Example 8, 2-(3,4-Dimethoxyphenyl)-1-methyl-6-(1-((6-methylpyridin-3-yl)methyl)piperidin-4-yl)-1H-pyrrolo[3,2-c]pyridine]: the IC50 came to 25.9 µM.
`Cc1nc(-c2cc(F)c(N3CCN(C4CCOCC4)CC3)c(F)c2)cc2c1cc(-c1ccc(S(C)(=O)=O)cc1)n2C` [Example 89, 6-(3,5-difluoro-4-(4-(tetrahydro-2H-pyran-4-yl)piperazin-1-yl)phenyl)-1,4-dimethyl-2-(4-(methylsulfonyl)phenyl)-1H-pyrrolo[3,2-c]pyridine]: the IC50 is more than 50 µM.
`Cc1nc(-c2ccc(C3(O)CCN(CC(C)C)CC3)c(F)c2)cc2c1cc(-c1ccc(S(C)(=O)=O)cc1)n2C` [Example 90, 4-(4-(1,4-dimethyl-2-(4-(methylsulfonyl)phenyl)-1H-pyrrolo[3,2-c]pyridin-6-yl)-2-fluorophenyl)-1-isobutylpiperidin-4-ol] displayed an IC50 of 22.1 µM.
As for `Cc1nc(-c2ccc(C3(O)CC4CCC(C3)N4CC(C)C)c(F)c2)cc2c1cc(-c1ccc(S(C)(=O)=O)cc1)n2C` [Example 91, (1R,3r,5S)-3-(4-(1,4-dimethyl-2-(4-(methylsulfonyl)phenyl)-1H-pyrrolo[3,2-c]pyridin-6-yl)-2-fluorophenyl)-8-isobutyl-8-azabicyclo[3.2.1]octan-3-ol], inhibition was half-maximal at 1.3 µM (IC50).
Turning to `COCCN1CCC(O)(c2ccc(-c3cc4c(cc(-c5ccc(S(C)(=O)=O)cc5)n4C)c(C)n3)cc2F)CC1` [Example 92, 4-(4-(1,4-dimethyl-2-(4-(methylsulfonyl)phenyl)-1H-pyrrolo[3,2-c]pyridin-6-yl)-2-fluorophenyl)-1-(2-methoxyethyl)piperidin-4-ol], the IC50 was more than 50 µM.
`Cc1nc(-c2ccc(C3(O)CCN(C4CC4)CC3)c(F)c2)cc2c1cc(-c1ccc(S(C)(=O)=O)cc1)n2C` [Example 93, 1-cyclopropyl-4-(4-(1,4-dimethyl-2-(4-(methylsulfonyl)phenyl)-1H-pyrrolo[3,2-c]pyridin-6-yl)-2-fluorophenyl)piperidin-4-ol] came in with an IC50 of more than 50 µM.
`Cc1nc(-c2cc(F)c(C3(O)CCN(CC(C)C)CC3)cc2F)cc2c1cc(-c1ccc(S(C)(=O)=O)cc1)n2C` [Example 94, 4-(4-(1,4-dimethyl-2-(4-(methylsulfonyl)phenyl)-1H-pyrrolo[3,2-c]pyridin-6-yl)-2,5-difluorophenyl)-1-isobutylpiperidin-4-ol] came in with an IC50 of 2.5 µM.
With `COCCN1CCC(O)(c2cc(F)c(-c3cc4c(cc(-c5ccc(S(C)(=O)=O)cc5)n4C)c(C)n3)cc2F)CC1` [Example 95, 4-(4-(1,4-dimethyl-2-(4-(methylsulfonyl)phenyl)-1H-pyrrolo[3,2-c]pyridin-6-yl)-2,5-difluorophenyl)-1-(2-methoxyethyl)piperidin-4-ol], half-maximal inhibition (IC50) required 2.7 µM.
For the compound `Cc1nc(-c2cc(F)c(C3(O)CCN(C4CC4)CC3)cc2F)cc2c1cc(-c1ccc(S(C)(=O)=O)cc1)n2C` [Example 96, 1-cyclopropyl-4-(4-(1,4-dimethyl-2-(4-(methylsulfonyl)phenyl)-1H-pyrrolo[3,2-c]pyridin-6-yl)-2,5-difluorophenyl)piperidin-4-ol], the IC50 is 4.1 µM.
`Cc1nc(-c2cc(F)c(N3CCN4CCCC4C3)cc2F)cc2c1cc(-c1ccc(S(C)(=O)=O)cc1)n2C` (stereo not drawn) [Example 97, 6-(2,5-difluoro-4-(hexahydropyrrolo[1,2-a]pyrazin-2(1H)-yl)phenyl)-1,4-dimethyl-2-(4-(methylsulfonyl)phenyl)-1H-pyrrolo[3,2-c]pyridine] registered an IC50 of 5.3 µM.
In the case of `Cc1nc(-c2cc(F)c(N3CCN4CCCC4C3)c(F)c2)cc2c1cc(-c1ccc(S(C)(=O)=O)cc1)n2C` (stereo not drawn) [Example 98, 6-(3,5-difluoro-4-(hexahydropyrrolo[1,2-a]pyrazin-2(1H)-yl)phenyl)-1,4-dimethyl-2-(4-(methylsulfonyl)phenyl)-1H-pyrrolo[3,2-c]pyridine], the IC50 was more than 50 µM.
